Results taken from US11111317B2, “Cordyceps militaris medium polysaccharide, method for separating and purifying same, and use thereof” (SOUTH CHINA NORMAL UNIVERSITY, priority 2018, dated 2021).

System: hyperuricemia model mice
Assay: Uric acid lowering ability in hyperuricemia model mice (xanthine + oteracil potassium)
Assay type: in vivo
Details: positive group 50 mg/kg by gavage, seven days, mouse serum
Method: Sixty male mice are randomly divided into six groups after one week's feeding, with 10 mice in each group, including a blank group, a model group, a high P1 dose group (400 mg/kg), a middle P1 dose group (200 mg/kg), a low P1 dose group (100 mg/kg) and a positive drug (50 mg/kg) control group. Every morning, the model group, the positive control group and the high, middle and low P1 dose groups are administered with 600 mg/kg of xanthine (ig) by gavage+100 mg/kg of oteracil potassium (ip) by intraperitoneal injection, fasting but water available for one hour before the model is made, and the blank group is administered with the same dose of normal saline. In the afternoon, the high, middle and low P1 dose groups are administered with the polysaccharide suspension by gavage; the positive control group is administered with 50 mg/kg of allopurinol suspension by gavage; the model group and the blank group are administered with the same volume of normal saline by gavage for seven consecutive days.
On the seventh day, 1 hour after administration in the afternoon, the mice are weighed and decapitated for blood collection. The blood is centrifuged at 3000 r/min for 10 min after being placed at room temperature for 40 min, and the upper layer of the serum is pipetted. Serum uric acid (UA), serum creatinine (CREA) and serum urea nitrogen (BUN) values are measured by kits to investigate the effects of the polysaccharide P1 on UA, CREA and BUN, as well as renal functions in the hyperuricemia model mice.

For `Oc1ncnc2[nH]ncc12` [Positive, allopurinol], the “BUN (serum urea nitrogen)” value was 6.99 ± 1.10 mmol/L, the “CREA (serum creatinine)” value was 71.69 ± 8.43 µmol/L and the “UA (serum uric acid)” value was 108.83 ± 6.53 µmol/L.
